Results as given in patent US5543406A, “Inhibitors of 5-α-testosterone reductase” (priority 1994, dated 1996).

Target: T1, Steroid 5-α-Reductase (Homo sapiens, UniProt P31213)
T1 construct: microsomes derived from prostate tissue of benign prostatic hypertrophy (BPH) patients; from tissue; host or cells: prostate tissue of BPH patients, microsomes
T1 sequence (P31213 1-254): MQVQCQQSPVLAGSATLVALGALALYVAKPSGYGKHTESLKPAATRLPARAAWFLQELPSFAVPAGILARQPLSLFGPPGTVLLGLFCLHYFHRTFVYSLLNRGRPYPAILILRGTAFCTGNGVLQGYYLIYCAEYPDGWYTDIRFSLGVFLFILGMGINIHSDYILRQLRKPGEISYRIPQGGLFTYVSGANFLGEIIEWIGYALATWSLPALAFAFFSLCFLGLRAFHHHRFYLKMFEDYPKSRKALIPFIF
Experiment: Steroid 5-α-reductase in vitro assay, human prostate microsomes (BPH patients)
Assay type: biochemical
Settings: human prostatic microsomes; 100 nM [3H]-testosterone, 1 mM NADPH, 60 minutes at 37° C.

IC50 [nM] | SMILES
< 10 | C[C@]12CC[C@H]3[C@@H](CNC4=CC(=O)CC[C@@]43C)[C@@H]1CC[C@@H]2C(=O)N(c1ccccc1)c1ccccc1 [Compound 59, 17β-N-Diphenylcarbamoyl-6-azaandrost-4-en-3-one]
100 to 1000 | CCN(CC)C(=O)[C@H]1CC[C@H]2[C@@H]3CN(CCCN4C(=O)c5ccccc5C4=O)C4=CC(=O)CC[C@]4(C)[C@H]3CC[C@]12C [Compound 52, 17β-N,N-Diethylcarbamoyl-6-(3-phthalimidylpropyl)-6-azaandrost-4-en-3-one]
10 to 100 | CCN(CC)C(=O)[C@H]1CC[C@H]2[C@@H]3CNC4=CC(=O)C(C)C[C@]4(C)[C@H]3CC[C@]12C (stereo partly drawn) [Compound 75, 17β-N,N-Diethylcarbamoyl-6-azaandrost-2-(α,β)-methyl-4-en-3-one]
100 to 1000 | CCN(CC)C(=O)[C@H]1CC[C@H]2[C@@H]3CN(CCCCN4C(=O)c5ccccc5C4=O)C4=CC(=O)CC[C@]4(C)[C@H]3CC[C@]12C [Compound 53, 17β-N,N-Diethylcarbamoyl-6-(4-phthalimidylbutyl)-6-azaandrost-4-en-3-one]
< 10 | C[C@]12CC[C@H]3[C@@H](CNC4=C(Br)C(=O)CC[C@@]43C)[C@@H]1CC[C@@H]2C(=O)NC12CC3CC(CC(C3)C1)C2 [Compound 55, 17β-N-1-Adamantylcarbamoyl-6-azaandrost-4-bromo-4-en-3-one]
< 10 | CCN(CC)C(=O)[C@H]1CC[C@H]2[C@@H]3CN(C(C)C)C4=CC(=O)CC[C@]4(C)[C@H]3CC[C@]12C [Compound 39, 17β-N,N-Diethylcarbamoyl-6-isopropyl-6-azaandrost-4-en-3-one]
10 to 100 | CC1=C2N(C)C[C@H]3[C@@H]4CC[C@H](C(=O)NC56CC7CC(CC(C7)C5)C6)[C@@]4(C)CC[C@@H]3[C@@]2(C)CCC1=O [Compound 57, 17β-N-1-Adamantylcarbamoyl-6-methyl-6-azaandrost-4-methyl-4-en-3-one]
100 to 1000 | CCN(CC)C(=O)[C@H]1CC[C@H]2[C@@H]3CN(CCOC)C4=CC(=O)CC[C@]4(C)[C@H]3CC[C@]12C [Compound 54, 17β-N,N-Diethylcarbamoyl-6-(2-methoxyethyl)-6-azaandrost-4-en-3-one]
< 10 | C[C@]12CC[C@H]3[C@@H](CNC4=CC(=O)CC[C@@]43C)[C@@H]1CC[C@@H]2C(=O)Nc1cccc2ccccc12 [Compound 72, 17β-N-1-Napthylcarbamoyl-6-azaandrost-4-en-3-one]
100 to 1000 | CCN(CC)C(=O)[C@H]1CC[C@H]2[C@@H]3CN(CCC(=O)O)C4=CC(=O)CC[C@]4(C)[C@H]3CC[C@]12C [Compound 45, 17β-N,N-Diethylcarbamoyl-6-(3-propanoic acid)-6-azaandrost-4-en-3-one]
10 to 100 | CCN(CC)C(=O)[C@H]1CC[C@H]2[C@@H]3CNC4=C(F)C(=O)CC[C@]4(C)[C@H]3CC[C@]12C [Compound 70, 17β-N,N-Diethylcarbamoyl-6-azaandrost-4-fluoro-4-en-3-one]
100 to 1000 | C=CCN1C[C@H]2[C@@H]3CC[C@H](C(=O)N(CC)CC)[C@@]3(C)CC[C@@H]2[C@@]2(C)CCC(=O)C=C12 [Compound 42, 17β-N,N-Diethylcarbamoyl-6-allyl-6-azaandrost-4-en-3-one]
100 to 1000 | CCN(CC)C(=O)[C@H]1CC[C@H]2[C@@H]3CN(CC(=O)O)C4=CC(=O)CC[C@]4(C)[C@H]3CC[C@]12C [Compound 44, 17β-N,N-Diethylcarbamoyl-6-(2-acetic acid)-6-azaandrost-4-en-3-one]
100 to 1000 | CCC1=C2NC[C@H]3[C@@H]4CC[C@H](C(=O)N(CC)CC)[C@@]4(C)CC[C@@H]3[C@@]2(C)CCC1=O [Compound 12, 17β-N,N-Diethylcarbamoyl-6-azaandrost-4-ethyl-4-en-3-one]
< 10 | C[C@]12CC[C@H]3[C@@H](CNC4=CC(=O)C=C[C@@]43C)[C@@H]1CC[C@@H]2C(=O)NC12CC3CC(CC(C3)C1)C2 [Compound 30, 17β-N-1-Adamantylcarbamoyl-6-azaandrost-1,4-dien-3-one]
100 to 1000 | CCN(CC)C(=O)[C@H]1CC[C@H]2[C@@H]3CN(CCCCC(=O)OC)C4=CC(=O)CC[C@]4(C)[C@H]3CC[C@]12C [Compound 49, 17β-N,N-Diethylcarbamoyl-6-(methyl-5-pentanoate)-6-azaandrost-4-en-3-one]
100 to 1000 | CCN(CC)C(=O)[C@H]1CC[C@H]2[C@@H]3CN(CC(C)C)C4=CC(=O)CC[C@]4(C)[C@H]3CC[C@]12C [Compound 40, 17β-N,N-Diethylcarbamoyl-6-isobutyl-6-azaandrost-4-en-3-one]
100 to 1000 | CCN(CC)C(=O)[C@H]1CC[C@H]2[C@@H]3CN(CCCCCC(=O)O)C4=CC(=O)CC[C@]4(C)[C@H]3CC[C@]12C [Compound 50, 17β-N,N-Diethylcarbamoyl-6-(6-hexanoic acid)-6-azaandrost-4-en-3-one]
100 to 1000 | CCN(CC)C(=O)[C@H]1CC[C@H]2[C@@H]3CNC4=C(C#N)C(=O)CC[C@]4(C)[C@H]3CC[C@]12C [Compound 13, 17β-N,N-Diethylcarbamoyl-6-azaandrost-4-cyano-4-en-3-one]
< 10 | C[C@]12CC[C@H]3[C@@H](CNC4=CC(=O)CC[C@@]43C)[C@@H]1CC[C@@H]2C(=O)NC(c1ccccc1)(c1ccccc1)c1ccccc1 [Compound 71, 17β-N-Triphenylmethylcarbamoyl-6-azaandrost-4-en-3-one]
100 to 1000 | CCN(CC)C(=O)[C@H]1CC[C@H]2[C@@H]3CN(CCCC(=O)O)C4=CC(=O)CC[C@]4(C)[C@H]3CC[C@]12C [Compound 47, 17β-N,N-Diethylcarbamoyl-6-(4-butanoic acid)-6-azaandrost-4-en-3-one]
100 to 1000 | CCN(CC)C(=O)[C@H]1CC[C@H]2[C@@H]3CN(CCCCC(=O)O)C4=CC(=O)CC[C@]4(C)[C@H]3CC[C@]12C [Compound 48, 17β-N,N-Diethylcarbamoyl-6-(5-pentanoic acid)-6-azaandrost-4-en-3-one]
100 to 1000 | CCN(CC)C(=O)[C@H]1CC[C@H]2[C@@H]3CNC4=C(CN(C)C)C(=O)CC[C@]4(C)[C@H]3CC[C@]12C [Compound 14, 17β-N,N-Diethylcarbamoyl-6-azaandrost-4-dimethylaminomethylene-4-en-3-one]
10 to 100 | CN1C[C@H]2[C@@H]3CC[C@H](C(=O)NC(C)(C)C)[C@@]3(C)CC[C@@H]2[C@]2(C)C1=CC(=O)[C@@H]1C[C@@H]12 [Compound 34, 17β-N-t-Butylcarbamoyl-6-methyl-6-azaandrost-1α,2α-cyclopropyl-4-en-3-one]
100 to 1000 | CCN(CC)C(=O)[C@H]1CC[C@H]2[C@@H]3CN(CCCO)C4=CC(=O)CC[C@]4(C)[C@H]3CC[C@]12C [Compound 15, 17β-N,N-Diethylcarbamoyl-6-(3-hydroxypropyl)-6-azaandrost-4-en-3-one]
100 to 1000 | CN1C[C@H]2[C@@H]3CC[C@H](C(=O)O)[C@@]3(C)CC[C@@H]2[C@@]2(C)CCC(=O)C=C12 [Compound 25, 17β-Carboxy-6-methyl-6-azaandrost-4-en-3-one]
100 to 1000 | CCN(CC)C(=O)[C@H]1CC[C@H]2[C@@H]3CN(CC4CC4)C4=CC(=O)CC[C@]4(C)[C@H]3CC[C@]12C [Compound 41, 17β-N,N-Diethylcarbamoyl-6-methylenecyclopropyl-6-azaandrost-4-en-3-one]
100 to 1000 | CCN(CC)C(=O)[C@H]1CC[C@H]2[C@@H]3CN(CCC(=O)OC)C4=CC(=O)CC[C@]4(C)[C@H]3CC[C@]12C [Compound 46, 17β-N,N-Diethylcarbamoyl-6-(methyl-3-propanoate)-6-azaandrost-4-en-3-one]
100 to 1000 | CCOC(=O)CCCCCN1C[C@H]2[C@@H]3CC[C@H](C(=O)N(CC)CC)[C@@]3(C)CC[C@@H]2[C@@]2(C)CCC(=O)C=C12 [Compound 51, 17β-N,N-Diethylcarbamoyl-6-(ethyl-6-hexanoate)-6-azaandrost-4-en-3-one]

Target: Steroid 5-α-Reductase
Experiment: Steroid 5-α-reductase in vitro assay, rat prostate microsomes
Assay type: biochemical
Settings: rat prostatic microsomes; 100 nM [3H]-testosterone, 1 mM NADPH, 60 minutes at 37° C.; read-out: ID50 Rat

IC50 [nM] | SMILES
100 to 1000 | C[C@]12CC[C@H]3[C@@H](CNC4=CC(=O)CC[C@@]43C)[C@@H]1CC[C@@H]2C(=O)N(c1ccccc1)c1ccccc1 [Compound 59, 17β-N-Diphenylcarbamoyl-6-azaandrost-4-en-3-one]
100 to 1000 | CCN(CC)C(=O)[C@H]1CC[C@H]2[C@@H]3CNC4=CC(=O)C(C)C[C@]4(C)[C@H]3CC[C@]12C (stereo partly drawn) [Compound 75, 17β-N,N-Diethylcarbamoyl-6-azaandrost-2-(α,β)-methyl-4-en-3-one]
< 10 | C[C@]12CC[C@H]3[C@@H](CNC4=C(Br)C(=O)CC[C@@]43C)[C@@H]1CC[C@@H]2C(=O)NC12CC3CC(CC(C3)C1)C2 [Compound 55, 17β-N-1-Adamantylcarbamoyl-6-azaandrost-4-bromo-4-en-3-one]
100 to 1000 | CCN(CC)C(=O)[C@H]1CC[C@H]2[C@@H]3CNC4=C(C)C(=O)CC[C@]4(C)[C@H]3CC[C@]12C [Compound 11, 17β-N,N-Diethylcarbamoyl-6-azaandrost-4-methyl-4-en-3-one]
< 10 | CC1=C2N(C)C[C@H]3[C@@H]4CC[C@H](C(=O)NC56CC7CC(CC(C7)C5)C6)[C@@]4(C)CC[C@@H]3[C@@]2(C)CCC1=O [Compound 57, 17β-N-1-Adamantylcarbamoyl-6-methyl-6-azaandrost-4-methyl-4-en-3-one]
100 to 1000 | CCN(CC)C(=O)[C@H]1CC[C@H]2[C@@H]3CN(C)C4=C(C)C(=O)CC[C@]4(C)[C@H]3CC[C@]12C [Compound 68, 17β-N,N-Diethylcarbamoyl-6-methyl-6-azaandrost-4-methyl-4-en-3-one]
100 to 1000 | CC1=C2N(C)C[C@H]3[C@@H]4CC[C@H](C(=O)NC(C)(C)C)[C@@]4(C)CC[C@@H]3[C@@]2(C)CCC1=O [Compound 69, 17β-N-t-Butylcarbamoyl-6-methyl-6-azaandrost-4-methyl-4-en-3-one]
10 to 100 | CC(C)CC(=O)[C@H]1CC[C@H]2[C@@H]3CNC4=C(Br)C(=O)CC[C@]4(C)[C@H]3CC[C@]12C [Compound 66, 17β-(1-Oxo-3-methylbutyl)-6-azaandrost-4-bromo-4-en-3-one]
10 to 100 | CCN(CC)C(=O)[C@H]1CC[C@H]2[C@@H]3CNC4=C(Cl)C(=O)CC[C@]4(C)[C@H]3CC[C@]12C [Compound 8, 17β-N,N-Diethylcarbamoyl-6-azaandrost-4-chloro-4-en-3-one]
10 to 100 | CC(C)CC(=O)[C@H]1CC[C@H]2[C@@H]3CN(C)C4=CC(=O)CC[C@]4(C)[C@H]3CC[C@]12C [Compound 26, 17β-(1-Oxo-3-methylbutyl)-6-methyl-6-azaandrost-4-en-3-one]
10 to 100 | CC(C)(C)NC(=O)[C@H]1CC[C@H]2[C@@H]3CNC4=CC(=O)CC[C@]4(C)[C@H]3CC[C@]12C [Compound 3, 17β-N-t-Butylcarbamoyl-6-azaandrost-4-en-3-one]
